Data published in patent US8192962B2, “Processes for detecting toxic substances” (Daikin Industries, Ltd., priority 2001, dated 2012).

System: Metabolism protein genes
Experiment: DNA chip mRNA expression in yeast, metabolism protein genes (Table 7)
Assay type: cell-based, Saccharomyces cerevisiae S288C
Method: Yeast (Saccharomyces cerevisiae S288C (α SUC2mal mel gap2 CUP1)) were incubated at 25° C. on YPD medium (yeast extract 1%, polypepton 2%, glucose 2%). One of toxic chemical substances was added to the cells at logarithmic growth phase, and the cells were further incubated for two hours. Cells were cultured without any chemical substance in the same condition, and were used as control. Concentrations of the chemical substances were defined to inhibit the growth of the yeast but not lead to death.
After completion of the incubation, the culture was centrifuged to collect the cells. To the cells, sodium acetate buffer (50 mM sodium acetate, 10 mM EDTA, 1% SDS) was added, and the mixture was shaken at 65° C. for five minutes, followed by returning to room temperature, and obtaining the supernatant, of which the procedures were repeated two times. To the supernatant, ½ amount of a solution of phenol/chloroform was added, and the mixture was centrifuged to give a supernatant, which was added with an equal amount of chloroform, and the mixture was centrifuged to give a supernatant. To the supernatant, an equal amount of isopropanol containing 0.3 M sodium acetate was added, and the mixture was allowed to stand at room temperature for 30 minutes, after which the mixture was centrifuged to give a sediment of the whole RNAs. Seventy % ethanol was added to the sediment, and the mixture was again centrifuged to give a sediment, which was then dried and dissolved in water. mRNA was isolated from the whole RNAs as followings. In view of the fact that a poly A chain is attached to the 3′ terminus of mRNA, a polynucleotide having a poly T structure which was immobilized on the surface of latex beads was used to trap the mRNA, and then the mRNA was washed and eluted with spine column (Oligotex-dT30<Super>mRNA Purification Kit, Takara). Reverse transcription of the mRNA was conducted with a reverse transcriptase (Super Script II Reverse Transcriptase; catalogue No. 18064-014, GibcoBRL) using fluorescence-labeled nucleotides to give cDNAs that were introduced with Cy3-dUTP or Cy5-dUTP during the reverse transcription.
The labeled cDNAs were dissolved in TE buffer (10mM Tris-HCl/1 mM EDTA, pH8.0), and the solution was dropped on the DNA chip containing the whole genes of yeast (DNA Chip Research Inc. Japan) so that the cDNAs were hybridized on the DNA chip at 65° C. for over 12 hours. The fluoresces intensity of the DNA chip was read with a scanner, and the ratio relative to the fluorescence intensity resulting from the absence of chemical substance was estimated as the following, which is shown in Tables 1 to 9: […]

[Cl][Cd][Cl] [(2), CdCl2]
The level of expressed mRNA in the presence of chemical substance/The level of expressed mRNA in the absence of chemical substance (yeast gene YJR155W): 3.7
The level of expressed mRNA in the presence of chemical substance/The level of expressed mRNA in the absence of chemical substance (yeast gene YKL035W): 0.9
level of expressed mRNA in the presence/in the absence of chemical substance (yeast gene YKL060C): 0.8
The level of expressed mRNA in the presence of chemical substance/The level of expressed mRNA in the absence of chemical substance (yeast gene YKL091C): 1.3
The level of expressed mRNA in the presence of chemical substance/The level of expressed mRNA in the absence of chemical substance (yeast gene YKL104C): 1.0
level of expressed mRNA in the presence/in the absence of chemical substance (yeast gene YKL148C): 0.8
The level of expressed mRNA in the presence of chemical substance/The level of expressed mRNA in the absence of chemical substance (yeast gene YKL152C): 1.3
level of expressed mRNA in the presence/in the absence of chemical substance (yeast gene YKL157W): 1.0
The level of expressed mRNA in the presence of chemical substance/The level of expressed mRNA in the absence of chemical substance (yeast gene YKL213C): 0.8
The level of expressed mRNA in the presence of chemical substance/The level of expressed mRNA in the absence of chemical substance (yeast gene YKL215C): 1.1
level of expressed mRNA in the presence/in the absence of chemical substance (yeast gene YKR034W): 1.5
The level of expressed mRNA in the presence of chemical substance/The level of expressed mRNA in the absence of chemical substance (yeast gene YLL058W): 3.8
level of expressed mRNA in the presence/in the absence of chemical substance (yeast gene YLR006C): 0.7
level of expressed mRNA in the presence/in the absence of chemical substance (yeast gene YLR044C): 0.6
level of expressed mRNA in the presence/in the absence of chemical substance (yeast gene YLR056W): 0.6
level of expressed mRNA in the presence/in the absence of chemical substance (yeast gene YLR058C): 0.8
level of expressed mRNA in the presence/in the absence of chemical substance (yeast gene YLR081W): 0.8
level of expressed mRNA in the presence/in the absence of chemical substance (yeast gene YLR089C): 1.2
The level of expressed mRNA in the presence of chemical substance/The level of expressed mRNA in the absence of chemical substance (yeast gene YLR180W): 1.4
The level of expressed mRNA in the presence of chemical substance/The level of expressed mRNA in the absence of chemical substance (yeast gene YLR273C): 1.0
level of expressed mRNA in the presence/in the absence of chemical substance (yeast gene YLR284C): 1.0
The level of expressed mRNA in the presence of chemical substance/The level of expressed mRNA in the absence of chemical substance (yeast gene YLR299W): 1.9
The level of expressed mRNA in the presence of chemical substance/The level of expressed mRNA in the absence of chemical substance (yeast gene YLR300W): 0.8
level of expressed mRNA in the presence/in the absence of chemical substance (yeast gene YLR304C): 0.6
The level of expressed mRNA in the presence of chemical substance/The level of expressed mRNA in the absence of chemical substance (yeast gene YLR307W): 0.4
The level of expressed mRNA in the presence of chemical substance/The level of expressed mRNA in the absence of chemical substance (yeast gene YLR348C): 4.5
level of expressed mRNA in the presence/in the absence of chemical substance (yeast gene YLR354C): 2.5
level of expressed mRNA in the presence/in the absence of chemical substance (yeast gene YLR372W): 0.3
level of expressed mRNA in the presence/in the absence of chemical substance (yeast gene YML022W): 0.6
The level of expressed mRNA in the presence of chemical substance/The level of expressed mRNA in the absence of chemical substance (yeast gene YML054C): 1.8
The level of expressed mRNA in the presence of chemical substance/The level of expressed mRNA in the absence of chemical substance (yeast gene YML070W): 1.7
The level of expressed mRNA in the presence of chemical substance/The level of expressed mRNA in the absence of chemical substance (yeast gene YML100W): 2.7
The level of expressed mRNA in the presence of chemical substance/The level of expressed mRNA in the absence of chemical substance (yeast gene YMR008C): 0.9
level of expressed mRNA in the presence/in the absence of chemical substance (yeast gene YMR011W): 1.0
level of expressed mRNA in the presence/in the absence of chemical substance (yeast gene YMR015C): 0.7
The level of expressed mRNA in the presence of chemical substance/The level of expressed mRNA in the absence of chemical substance (yeast gene YMR020W): 1.0
level of expressed mRNA in the presence/in the absence of chemical substance (yeast gene YMR083W): 1.7
The level of expressed mRNA in the presence of chemical substance/The level of expressed mRNA in the absence of chemical substance (yeast gene YMR105C): 3.0
The level of expressed mRNA in the presence of chemical substance/The level of expressed mRNA in the absence of chemical substance (yeast gene YMR189W): 0.8
level of expressed mRNA in the presence/in the absence of chemical substance (yeast gene YMR205C): 0.7
level of expressed mRNA in the presence/in the absence of chemical substance (yeast gene YMR261C): 1.6
The level of expressed mRNA in the presence of chemical substance/The level of expressed mRNA in the absence of chemical substance (yeast gene YMR271C): 1.6
The level of expressed mRNA in the presence of chemical substance/The level of expressed mRNA in the absence of chemical substance (yeast gene YMR296C): 0.7
level of expressed mRNA in the presence/in the absence of chemical substance (yeast gene YMR323W): 1.1
The level of expressed mRNA in the presence of chemical substance/The level of expressed mRNA in the absence of chemical substance (yeast gene YNL012W): 1.3
level of expressed mRNA in the presence/in the absence of chemical substance (yeast gene YNL025C): 1.4
The level of expressed mRNA in the presence of chemical substance/The level of expressed mRNA in the absence of chemical substance (yeast gene YNL045W): 1.3
The level of expressed mRNA in the presence of chemical substance/The level of expressed mRNA in the absence of chemical substance (yeast gene YNL104C): 1.3
The level of expressed mRNA in the presence of chemical substance/The level of expressed mRNA in the absence of chemical substance (yeast gene YNL106C): 1.4
The level of expressed mRNA in the presence of chemical substance/The level of expressed mRNA in the absence of chemical substance (yeast gene YNL169C): 1.4
level of expressed mRNA in the presence/in the absence of chemical substance (yeast gene YNL192W): 1.2
The level of expressed mRNA in the presence of chemical substance/The level of expressed mRNA in the absence of chemical substance (yeast gene YNL231C): 0.8
The level of expressed mRNA in the presence of chemical substance/The level of expressed mRNA in the absence of chemical substance (yeast gene YNL322C): 0.9
The level of expressed mRNA in the presence of chemical substance/The level of expressed mRNA in the absence of chemical substance (yeast gene YNL331C): 3.6
The level of expressed mRNA in the presence of chemical substance/The level of expressed mRNA in the absence of chemical substance (yeast gene YNL332W): 1.5
The level of expressed mRNA in the presence of chemical substance/The level of expressed mRNA in the absence of chemical substance (yeast gene YNR019W): 1.3
The level of expressed mRNA in the presence of chemical substance/The level of expressed mRNA in the absence of chemical substance (yeast gene YNR033W): 0.8
The level of expressed mRNA in the presence of chemical substance/The level of expressed mRNA in the absence of chemical substance (yeast gene YNR059W): 0.9
The level of expressed mRNA in the presence of chemical substance/The level of expressed mRNA in the absence of chemical substance (yeast gene YOL058W): 0.5
level of expressed mRNA in the presence/in the absence of chemical substance (yeast gene YOL086C): 0.5
level of expressed mRNA in the presence/in the absence of chemical substance (yeast gene YOL108C): 1.5
level of expressed mRNA in the presence/in the absence of chemical substance (yeast gene YOL116W): 1.0
The level of expressed mRNA in the presence of chemical substance/The level of expressed mRNA in the absence of chemical substance (yeast gene YOL126C): 0.8
The level of expressed mRNA in the presence of chemical substance/The level of expressed mRNA in the absence of chemical substance (yeast gene YOL153C): 1.2
level of expressed mRNA in the presence/in the absence of chemical substance (yeast gene YOL156W): 0.7
The level of expressed mRNA in the presence of chemical substance/The level of expressed mRNA in the absence of chemical substance (yeast gene YOL165C): 4.5
level of expressed mRNA in the presence/in the absence of chemical substance (yeast gene YOR002W): 1.1
level of expressed mRNA in the presence/in the absence of chemical substance (yeast gene YOR085W): 0.8
The level of expressed mRNA in the presence of chemical substance/The level of expressed mRNA in the absence of chemical substance (yeast gene YOR099W): 1.3
level of expressed mRNA in the presence/in the absence of chemical substance (yeast gene YOR103C): 0.8
level of expressed mRNA in the presence/in the absence of chemical substance (yeast gene YOR108W): 0.9
level of expressed mRNA in the presence/in the absence of chemical substance (yeast gene YOR128C): 0.7
The level of expressed mRNA in the presence of chemical substance/The level of expressed mRNA in the absence of chemical substance (yeast gene YOR130C): 1.7
level of expressed mRNA in the presence/in the absence of chemical substance (yeast gene YOR142W): 1.2
level of expressed mRNA in the presence/in the absence of chemical substance (yeast gene YOR176W): 2.6
level of expressed mRNA in the presence/in the absence of chemical substance (yeast gene YOR178C): 1.3
level of expressed mRNA in the presence/in the absence of chemical substance (yeast gene YOR251C): 1.0
The level of expressed mRNA in the presence of chemical substance/The level of expressed mRNA in the absence of chemical substance (yeast gene YOR336W): 1.4
The level of expressed mRNA in the presence of chemical substance/The level of expressed mRNA in the absence of chemical substance (yeast gene YOR347C): 0.9
level of expressed mRNA in the presence/in the absence of chemical substance (yeast gene YOR348C): 0.7
The level of expressed mRNA in the presence of chemical substance/The level of expressed mRNA in the absence of chemical substance (yeast gene YPL017C): 2.5
level of expressed mRNA in the presence/in the absence of chemical substance (yeast gene YPL028W): 0.9
level of expressed mRNA in the presence/in the absence of chemical substance (yeast gene YPL057C): 1.1
level of expressed mRNA in the presence/in the absence of chemical substance (yeast gene YPL135W): 1.2
level of expressed mRNA in the presence/in the absence of chemical substance (yeast gene YPL148C): 0.8
The level of expressed mRNA in the presence of chemical substance/The level of expressed mRNA in the absence of chemical substance (yeast gene YPR026W): 1.2
level of expressed mRNA in the presence/in the absence of chemical substance (yeast gene YPR113W): 0.8
level of expressed mRNA in the presence/in the absence of chemical substance (yeast gene YPR165W): 0.7
The level of expressed mRNA in the presence of chemical substance/The level of expressed mRNA in the absence of chemical substance (yeast gene YPR167C): 5.8
level of expressed mRNA in the presence/in the absence of chemical substance (yeast gene YPR183W): 1.5
